How the values were obtained:
A375 cells = experiment: Annexin V-PE/7-AAD apoptosis assay (Muse); type: cell-based; conditions: 48 h, early and late apoptotic
Protocol: In this study, A375 cells were initially seeded into 24-well plates at a density of 1×10^4 cells per well. After 24 hours, the cell culture medium was carefully removed, and a new medium containing 16b and 29 at varying final concentrations (1, 5, and 10 µM) was added, followed by an additional 48-hour incubation. Cells in a medium containing 0.2% DMSO served as the control group. After the treatment period, cells were washed with phosphate-buffered saline (PBS), and both the cell medium and PBS wash were retained. The cells were then detached using trypsin and centrifuged. The resulting cell pellet was suspended in a fresh medium after discarding the supernatant. An equivalent volume of Muse Annexin V & Dead Cell Reagent (Luminex Corporation, Austin, TX, USA) was added and thoroughly mixed through repeated pipetting. The staining procedure was conducted for 20 minutes at room temperature in the absence of light. The Muse Cell Analyzer (Luminex Corporation, Austin, TX, USA) was utilized for analysis. This assay detects phosphatidylserine (PS) on apoptotic cell surfaces using annexin V-PE (phycoerythrin) binding. A 7-AAD (7-aminoactinomycin D) marker was used to assess cell membrane integrity. The dual staining approach enabled the identification of four distinct cell groups: viable (Annexin V-PE− and 7-AAD−), early apoptotic (Annexin V-PE+ and 7-AAD−), late apoptotic/dead (Annexin V-PE+ and 7-AAD+), and primarily nuclear debris (Annexin V-PE− and 7-AAD+). The findings were based on at least three separate experimental runs.

tubulin = molecular target: T1, tubulin (Sus scrofa, UniProt P02550+P02554); experiment: Cell free tubulin polymerization assay (fluorescence-based); type: biochemical
T1 construct: purchased Cytoskeleton, Denver, CO, USA
Protocol: The tubulin polymerization process was evaluated using a tubulin (>99% pure) and fluorescence-based tubulin polymerization kit (Cytoskeleton, Denver, CO, USA). The effects of compounds 16b and 29 (at final concentrations of 1, 10, 50, 100 µM) on tubulin polymerization were evaluated in cell-free conditions. Paclitaxel (PTX) and vinblastine (VBL) (3 µM) were used as references, and DMSO (0.2%) was used as the vehicle control. This assay tracks the process of tubulin polymerization through an increase in fluorescence resulting from the addition of a fluorescence reporter to microtubules as polymerization occurs. After incubating the tested compounds at 37°C for 1 minute, the icy tubulin reaction mixture (2 mg/mL tubulin, 1.0 mM GTP, 15% glycerol in buffer containing 80 mM PIPES, 2.0 mM MgCl2, 0.5 mM EGTA, pH 6.9, and 10 µM fluorescent reporter) was added to the samples, which were then mixed and monitored using a spectrophotometric microplate reader (Infinite 200 Pro, Tecan) at 1-minute intervals for 90 minutes at 37°C (excitation: 360 nm, emission: 450 nm). The software installed on the plate reader was used to compute the maximum slope (Vmax) of the growth phase, measured in RFU/min, as outlined in the manufacturer's instructions. Each polymerization curve's Vmax was then standardized against the control curve's Vmax. The IC50 values were determined using an online tool (AAT Bioquest, Inc., Quest Graph™ IC50 Calculator ((v.1). Retrieved from https://www.aatbio.com/tools/IC50-calculator-v1, accessed on: 2024, May 6).

T1 sequence (P02554 whole entry): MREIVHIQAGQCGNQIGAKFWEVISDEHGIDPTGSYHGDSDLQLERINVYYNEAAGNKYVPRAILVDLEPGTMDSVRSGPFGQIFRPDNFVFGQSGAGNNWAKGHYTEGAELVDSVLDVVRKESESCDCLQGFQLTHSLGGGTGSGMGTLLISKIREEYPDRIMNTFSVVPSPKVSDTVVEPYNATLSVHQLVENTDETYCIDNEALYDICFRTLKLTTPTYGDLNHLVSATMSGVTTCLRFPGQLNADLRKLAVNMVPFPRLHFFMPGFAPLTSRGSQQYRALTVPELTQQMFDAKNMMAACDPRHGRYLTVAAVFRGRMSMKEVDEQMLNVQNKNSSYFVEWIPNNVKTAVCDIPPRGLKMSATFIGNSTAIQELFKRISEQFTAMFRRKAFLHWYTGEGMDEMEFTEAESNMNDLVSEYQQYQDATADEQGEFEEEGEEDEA
T1 sequence (P02550 whole entry): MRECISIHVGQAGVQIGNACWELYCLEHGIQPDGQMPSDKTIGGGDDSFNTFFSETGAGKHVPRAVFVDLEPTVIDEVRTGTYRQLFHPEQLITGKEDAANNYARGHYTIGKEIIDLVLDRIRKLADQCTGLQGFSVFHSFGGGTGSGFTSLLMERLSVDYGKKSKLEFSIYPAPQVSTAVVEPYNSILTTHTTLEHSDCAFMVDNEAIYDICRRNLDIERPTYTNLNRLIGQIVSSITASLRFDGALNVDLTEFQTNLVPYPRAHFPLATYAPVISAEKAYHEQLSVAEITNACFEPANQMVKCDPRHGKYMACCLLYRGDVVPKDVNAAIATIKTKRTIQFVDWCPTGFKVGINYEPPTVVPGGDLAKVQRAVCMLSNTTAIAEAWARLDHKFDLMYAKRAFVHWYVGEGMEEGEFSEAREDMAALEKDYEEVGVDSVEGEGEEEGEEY

## COc1cc(Cn2cc(-c3cccs3)ccc2=S)cc(OC)c1OC [Compound 16b]
A375 cells; 5 µM
  percentage of annexin-positive cells: 18.43 ± 2.90%
A375 cells; 10 µM
  percentage of annexin-positive cells: 30.50 ± 1.27%
tubulin; 100 µM
  effect on tubulin polymerization: acted as tubulin polymerization inhibitors
tubulin; Vmax normalised to control, read-out: tubulin polymerization inhibition IC50
  IC50: 37.3 ± 10.9 µM

Reference: PMC13223435, “Synthesis and Antiproliferative Activity against Melanoma Cells of New Heterocyclic Hybrids Based on Pyridine and Pyrimidine Scaffolds” (Current Medicinal Chemistry, 2025)
